Measurements reported in patent publication US9586936B2, “Heteroarylamine derivatives as protein kinase inhibitors” (KOREA INSTITUTE OF SCIENCE AND TECHNOLOGY, priority 2014, dated 2017).

Legend:
[1] = system: bladder cancer cell line RT112; assay: inhibition of proliferation of cancer cells; format: cell-based; conditions: Homo sapiens, RT-112, read-out: Ability of inhibiting proliferation of RT112 (GI50)
Experimental: The ability of the compound of the present invention of inhibiting the proliferation of the bladder cancer cell line RT112 was determined as the GI50 value.

[2] = system: RT112 bladder cancer cell line; conditions: literature statement; cited from earlier work
FGFR3 = FGFR3 (Homo sapiens, UniProt P22607); conditions: literature statement; cited from earlier work
microsomal stability [3] = format: in vitro ADME, Dog; conditions: Dog
Experimental: (§1) The microsomal stability of N-(2,6-dichloro-3,5-dimethoxyphenyl)-1-(6-((4-(4-ethylpiperazin-1-yl)phenyl)amino)pyrimidin-4-yl)-1H-benz[d]imidazol-2-amine synthesized in Example 1, as a representative compound of the present invention, was evaluated.

microsomal stability [4] = format: in vitro ADME, Rat; conditions: Rat
Experimental: as §1

microsomal stability [5] = format: in vitro ADME, Human; conditions: Human
Experimental: as §1

microsomal stability [6] = format: in vitro ADME, Mouse; conditions: Mouse
Experimental: as §1

Sequence of FGFR3 (P22607 23-806): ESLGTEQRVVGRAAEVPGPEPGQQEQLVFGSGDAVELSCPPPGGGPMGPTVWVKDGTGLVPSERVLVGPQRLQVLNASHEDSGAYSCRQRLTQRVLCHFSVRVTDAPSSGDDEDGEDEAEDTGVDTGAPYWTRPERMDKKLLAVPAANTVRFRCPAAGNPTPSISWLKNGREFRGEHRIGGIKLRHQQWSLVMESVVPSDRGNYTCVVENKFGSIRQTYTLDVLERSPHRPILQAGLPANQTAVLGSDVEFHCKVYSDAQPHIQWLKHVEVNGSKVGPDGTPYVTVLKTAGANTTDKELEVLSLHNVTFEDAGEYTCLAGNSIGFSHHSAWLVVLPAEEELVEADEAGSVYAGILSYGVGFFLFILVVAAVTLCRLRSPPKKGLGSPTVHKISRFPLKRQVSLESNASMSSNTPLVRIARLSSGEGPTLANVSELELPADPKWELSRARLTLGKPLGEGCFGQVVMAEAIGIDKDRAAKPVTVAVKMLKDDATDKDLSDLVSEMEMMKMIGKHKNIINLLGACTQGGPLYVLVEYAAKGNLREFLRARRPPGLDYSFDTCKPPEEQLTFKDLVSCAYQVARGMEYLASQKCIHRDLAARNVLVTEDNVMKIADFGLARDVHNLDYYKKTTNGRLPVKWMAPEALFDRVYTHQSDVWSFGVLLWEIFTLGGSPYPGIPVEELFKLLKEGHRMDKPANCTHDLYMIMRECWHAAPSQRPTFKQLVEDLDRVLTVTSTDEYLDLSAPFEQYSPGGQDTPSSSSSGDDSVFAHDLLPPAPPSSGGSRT

COc1cc(N2CCN(C)CC2)ccc1Nc1cc(-n2c(Nc3c(Cl)c(OC)cc(OC)c3Cl)nc3ccccc32)ncn1 [Example 2, N-(2,6-dichloro-3,5-dimethoxyphenyl)-1-(6-((2-methoxy-4-(4-methylpiperazin-1-yl)phenyl)amino)pyrimidin-4-yl)-1H-benz[d]imidazol-2-amine]
GI50 [1]: < 1 µM

COc1cc(OC)c(Cl)c(Nc2nc3ccccc3n2-c2cc(Nc3ccc(N4CCOCC4)cc3)ncn2)c1Cl [Example 3, N-(2,6-dichloro-3,5-dimethoxyphenyl)-1-(6-((4-morpholinophenyl)amino)pyrimidin-4-yl)-1H-benz[d]imidazol-2-amine]
GI50 [1]: < 1 µM

COc1cc(N2CCOCC2)ccc1Nc1cc(-n2c(Nc3c(Cl)c(OC)cc(OC)c3Cl)nc3ccccc32)ncn1 [Example 4, N-(2,6-dichloro-3,5-dimethoxyphenyl)-1-(6-((2-methoxy-4-morpholinophenyl)amino)pyrimidin-4-yl)-1H-benz[d]imidazol-2-amine]
GI50 [1]: < 1 µM

COc1cc(OC)c(Cl)c(Nc2nc3ccccc3n2-c2cc(Nc3ccc(N4CCC(N5CCCCC5)CC4)c(C(F)(F)F)c3)ncn2)c1Cl [Example 5, 1-(6-((4-([1,4′-bipiperidin]-1′-yl)-3-(trifluoromethyl)phenyl)amino)pyrimidin-4-yl)-N-(2,6-dichloro-3,5-dimethoxyphenyl)-1H-benz[d]imidazol-2-amine]
GI50 [1]: < 10 µM

COc1cc(OC)c(Cl)c(Nc2nc3ccccc3n2-c2cc(Nc3ccc(CN4CCN(CC5CCCCC5)CC4)cc3)ncn2)c1Cl [Example 6, 1-(6-((4-((4-(cyclohexylmethyl)piperazin-1-yl)methyl)phenyl)amino)pyrimidin-4-yl)-N-(2,6-dichloro-3,5-dimethoxyphenyl)-1H-benz[d]imidazol-2-amine]
GI50 [1]: < 10 µM

COc1cc(OC)c(Cl)c(Nc2nc3ccccc3n2-c2cc(N)ncn2)c1Cl [Example 8]
GI50 [1]: < 1 µM

CNc1cc(-n2c(Nc3c(Cl)c(OC)cc(OC)c3Cl)nc3ccccc32)ncn1 [Example 9, N-(2,6-dichloro-3,5-dimethoxyphenyl)-1-(6-(methylamino)pyrimidin-4-yl)-1H-benz[d]imidazol-2-amine]
GI50 [1]: < 1 µM

COc1cc(OC)c(Cl)c(Nc2nc3ccccc3n2-c2cc(Nc3ccccc3)ncn2)c1Cl [Example 10, N-(2,6-dichloro-3,5-dimethoxyphenyl)-1-(6-(phenylamino)pyrimidin-4-yl)-1H-benz[d]imidazol-2-amine]
GI50 [1]: < 1 µM

COc1cc(OC)c(Cl)c(Nc2nc3ccccc3n2-c2cc(Nc3ncccn3)ncn2)c1Cl [Example 11, N-(2,6-dichloro-3,5-dimethoxyphenyl)-1-(6-(pyrimidin-2-ylamino)pyrimidin-4-yl)-1H-benz[d]imidazol-2-amine]
GI50 [1]: < 1 µM

CCN1CCN(c2ccc(Nc3cc(N(C)C(=O)Nc4c(Cl)c(OC)cc(OC)c4Cl)ncn3)cc2)CC1 [NVP-BGJ398, 3-(2,6-dichloro-3,5-dimethoxyphenyl)-1-{6-[4-(4-ethyl-piperazin-1-yl)phenylamino]pyrimidin-4-yl}-1-methylurea]
anticancer activity for the RT112 bladder cancer cell line, in words [2]: effective anticancer activity
inhibition activity against FGFR3, in words (FGFR3): selective inhibition activity

Cc1ncc2n1-c1ccc(Cl)cc1C(c1ccccc1F)=NC2 [midazolam, reference compound]
microsomal stability (% at time) (microsomal stability [3]; 0 min): 100.00%
microsomal stability (% at time) (microsomal stability [3]; 5 min): 6.23%
microsomal stability (% at time) (microsomal stability [3]; 10 min): 0.59%
microsomal stability (% at time) (microsomal stability [3]; 15 min): 0.27%
microsomal stability (% at time) (microsomal stability [3]; 30 min): 0.10%
microsomal stability (% at time) (microsomal stability [4]; 0 min): 100.00%
microsomal stability (% at time) (microsomal stability [4]; 5 min): 13.65%
microsomal stability (% at time) (microsomal stability [4]; 10 min): 1.01%
microsomal stability (% at time) (microsomal stability [4]; 15 min): 0.14%
microsomal stability (% at time) (microsomal stability [4]; 30 min): 0.04%
microsomal stability (% at time) (microsomal stability [5]; 0 min): 100.00%
microsomal stability (% at time) (microsomal stability [5]; 5 min): 38.75%
microsomal stability (% at time) (microsomal stability [5]; 10 min): 12.92%
microsomal stability (% at time) (microsomal stability [5]; 15 min): 5.60%
microsomal stability (% at time) (microsomal stability [5]; 30 min): 0.73%
microsomal stability (% at time) (microsomal stability [6]; 0 min): 100.00%
microsomal stability (% at time) (microsomal stability [6]; 5 min): 10.42%
microsomal stability (% at time) (microsomal stability [6]; 10 min): 1.13%
microsomal stability (% at time) (microsomal stability [6]; 15 min): 0.18%
microsomal stability (% at time) (microsomal stability [6]; 30 min): 0.05%
